The values below come from paper PMC11178805, “Ligand-based design of [^18F]OXD-2314 for PET imaging in non-Alzheimer’s disease tauopathies” (Nature Communications, 2024).

Where “and” joins values, the source holds several entries; their conditions need not be identical. Identical values can stand only once.

The nature of series [1]: Mouse pharmacology (DMPK): plasma and brain concentrations, brain-to-plasma ratios after i.v. administration. The format is in vivo, mice. How it is done: Ex vivo evaluation of the BBB permeability of OXD-2314 was performed by measuring the brain-to-plasma ratios in mice. Compound concentrations in plasma (0.03 h, 0.17 h, 0.5 h, 1 h, and 2 h; n = 3 per timepoint) were compared with concentrations in brain (0.03 h, 0.17 h, 1 h, and 2 h; n = 3 per timepoint) for both OXD-2115 and OXD-2314. The total brain-to-plasma concentration ratios were 1.7 for OXD-2314 and 0.1 for OXD-2115. The free concentration ratio for brain-to-plasma was 0.6 for OXD-2314 and 0.002 for OXD-2115 (Figs. S3–S8 and Tables S2, S3).

For series [2], the target named is T1, 5-lipoxygenase (Homo sapiens, UniProt P09917).
T1 construct: purchased Eurofins, France (contract screening)
T1 sequence (P09917 1-674): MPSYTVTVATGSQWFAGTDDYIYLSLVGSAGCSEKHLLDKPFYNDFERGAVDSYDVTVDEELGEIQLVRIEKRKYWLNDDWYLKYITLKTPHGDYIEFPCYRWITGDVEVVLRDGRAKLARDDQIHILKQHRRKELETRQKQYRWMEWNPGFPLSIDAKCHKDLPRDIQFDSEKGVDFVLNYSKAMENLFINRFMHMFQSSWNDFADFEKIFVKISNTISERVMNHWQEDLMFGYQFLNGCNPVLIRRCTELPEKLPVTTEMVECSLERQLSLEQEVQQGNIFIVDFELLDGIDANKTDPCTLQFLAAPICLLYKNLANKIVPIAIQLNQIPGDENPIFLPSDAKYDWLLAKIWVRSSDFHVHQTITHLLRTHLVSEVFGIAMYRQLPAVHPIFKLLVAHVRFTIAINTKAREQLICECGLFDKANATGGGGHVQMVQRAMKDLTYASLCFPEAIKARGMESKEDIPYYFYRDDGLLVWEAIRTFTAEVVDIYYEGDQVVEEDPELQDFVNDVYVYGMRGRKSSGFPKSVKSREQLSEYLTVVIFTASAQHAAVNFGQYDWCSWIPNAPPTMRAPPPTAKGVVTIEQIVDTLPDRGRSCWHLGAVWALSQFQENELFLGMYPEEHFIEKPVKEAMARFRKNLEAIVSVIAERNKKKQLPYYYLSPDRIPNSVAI
Kind of series: In vitro pharmacology enzyme screen (Eurofins): 5-lipoxygenase. The format is biochemical. How it is done: OXD-2314 binding to CNS receptors was calculated as a percentage of inhibition of a receptor-specific radioligand. Enzyme inhibition was calculated as the percent inhibition of baseline enzyme activity where inhibition above 50% was considered significant. […] Norepinephrine transports are expressed in low concentration throughout the brain and its relative concentration are not affected by aging or neurodegeneration. 5-lipoxygenase may be overexpressed in aging brain and play some role in neurodegeneration, which could be necessary to further investigate in vivo[42]. Off-target binding to monoamine oxidase A and B (MAO-A and MAO-B) has been seen with some tau PET radiotracers[43],[44].

With `COC1CCCN(c2ccc(-c3cc4cc(O)ccc4[nH]3)c(F)n2)C1` (stereo not drawn) [OXD-2314, 2-(2-fluoro-6-(3-methoxypiperidin-1-yl)pyridin-3-yl)-1H-indol-5-ol], the “Conc. (ng/ml), brain” value in series [1] (mouse brain, t=1 hr after i.v. administration, individual animals, LC-MS/MS 341.7500>256.1500, re-run Brain_2) was 0.851 ng/mL; in series [1] (mouse brain, t=2 hr after i.v. administration, individual animals, LC-MS/MS 341.7500>256.1500, re-run Brain_2) it was 0.647 ng/mL and 0.5 ng/mL and 0.3 ng/mL. In addition, the Kp,uu (unbound brain-to-plasma ratio) in series [1] (mouse, brain, iv, mice, i.v., AUC brain:plasma, FREE, read-out: free concentration ratio brain-to-plasma) was 0.6. The Kp in series [1] (mouse, brain, iv, mice, i.v., AUC brain:plasma, TOTAL, read-out: total brain-to-plasma concentration ratio) stood at 1.7. The concentration at 1 h in series [1] (mouse, brain, iv, mouse brain, t=1 hr after i.v. administration, individual animals, LC-MS/MS 341.7500>256.1500, re-run Brain_2, read-out: Conc. (ng/ml), brain) came out at 1 ng/mL. The compound also yielded an inhibition at 10 µM in series [2] of 50.1%.
